Laboratory results reported in ChEMBL document CHEMBL1137300, “Identification of the brominated flame retardant 1,2-dibromo-4-(1,2-dibromoethyl)cyclohexane as an androgen agonist” (J Med Chem, 2006).

Experiments:
Androgen receptor [1] = target: T1, Androgen receptor (Rattus norvegicus, UniProt P15207); experiment: Displacement of androgen fluormone from rat androgen receptor
T1 sequence (P15207 whole entry): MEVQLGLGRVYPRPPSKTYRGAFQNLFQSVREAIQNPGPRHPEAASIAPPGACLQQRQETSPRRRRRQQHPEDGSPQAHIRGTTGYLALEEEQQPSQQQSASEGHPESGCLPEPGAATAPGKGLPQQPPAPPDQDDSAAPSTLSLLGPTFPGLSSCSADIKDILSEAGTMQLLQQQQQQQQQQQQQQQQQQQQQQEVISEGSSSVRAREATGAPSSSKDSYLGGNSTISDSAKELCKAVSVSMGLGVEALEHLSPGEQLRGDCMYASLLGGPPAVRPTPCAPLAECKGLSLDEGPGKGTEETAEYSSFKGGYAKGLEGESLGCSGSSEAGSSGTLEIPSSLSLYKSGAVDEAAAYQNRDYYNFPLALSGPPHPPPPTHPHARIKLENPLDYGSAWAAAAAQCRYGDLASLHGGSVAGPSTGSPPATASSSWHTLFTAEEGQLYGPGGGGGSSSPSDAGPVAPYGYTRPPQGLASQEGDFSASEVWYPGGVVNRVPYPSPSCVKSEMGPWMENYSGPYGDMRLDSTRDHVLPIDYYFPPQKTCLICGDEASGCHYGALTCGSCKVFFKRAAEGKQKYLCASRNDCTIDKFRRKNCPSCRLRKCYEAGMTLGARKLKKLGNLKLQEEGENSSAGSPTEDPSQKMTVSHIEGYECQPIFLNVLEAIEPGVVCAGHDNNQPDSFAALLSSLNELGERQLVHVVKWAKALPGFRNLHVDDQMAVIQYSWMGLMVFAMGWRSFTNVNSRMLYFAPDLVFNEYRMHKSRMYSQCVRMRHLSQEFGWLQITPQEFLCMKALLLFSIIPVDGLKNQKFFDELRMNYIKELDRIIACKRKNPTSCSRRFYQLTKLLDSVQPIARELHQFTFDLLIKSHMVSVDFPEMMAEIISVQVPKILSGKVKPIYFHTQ

Androgen receptor [2] = target: T2, Androgen receptor (Homo sapiens, UniProt P10275); experiment: Activity against human androgen receptor expressed in HepG2 cells assessed as luciferase reporter gene activation
T2 sequence (P10275 whole entry): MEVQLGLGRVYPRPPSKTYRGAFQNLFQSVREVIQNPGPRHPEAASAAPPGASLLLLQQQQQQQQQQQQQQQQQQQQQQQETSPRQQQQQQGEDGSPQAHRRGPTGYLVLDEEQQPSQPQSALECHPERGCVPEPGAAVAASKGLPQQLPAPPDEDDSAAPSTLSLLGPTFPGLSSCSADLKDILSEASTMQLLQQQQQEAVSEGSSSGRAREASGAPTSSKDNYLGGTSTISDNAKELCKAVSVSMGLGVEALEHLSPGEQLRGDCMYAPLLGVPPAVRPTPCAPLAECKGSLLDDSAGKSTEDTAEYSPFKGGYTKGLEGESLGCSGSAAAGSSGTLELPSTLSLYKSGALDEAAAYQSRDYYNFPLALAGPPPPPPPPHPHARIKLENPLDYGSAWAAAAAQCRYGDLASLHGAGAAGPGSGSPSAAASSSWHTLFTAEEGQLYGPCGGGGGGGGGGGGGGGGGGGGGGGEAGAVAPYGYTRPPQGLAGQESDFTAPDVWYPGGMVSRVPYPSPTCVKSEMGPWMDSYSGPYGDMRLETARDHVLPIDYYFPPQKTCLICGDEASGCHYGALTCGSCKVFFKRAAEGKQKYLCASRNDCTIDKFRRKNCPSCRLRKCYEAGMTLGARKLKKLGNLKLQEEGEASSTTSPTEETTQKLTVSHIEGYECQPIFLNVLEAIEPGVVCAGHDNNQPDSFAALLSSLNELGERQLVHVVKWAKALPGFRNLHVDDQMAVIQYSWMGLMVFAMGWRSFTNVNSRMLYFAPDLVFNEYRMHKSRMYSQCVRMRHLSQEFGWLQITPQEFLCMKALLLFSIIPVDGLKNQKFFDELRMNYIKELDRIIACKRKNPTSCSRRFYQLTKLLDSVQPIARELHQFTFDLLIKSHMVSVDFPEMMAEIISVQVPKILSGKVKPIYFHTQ

`BrCC(Br)C1CCC(Br)C(Br)C1` (configuration not stated) was tested, and the IC50 (Androgen receptor [1]) was 163 nM and the IC50 (Androgen receptor [2]) was 42.7 nM.
